The text below walks through data of PubChem BioAssay (NCI).

Common to all, as to experiment: NCI anticancer screen, dose series, 48 h
For experiment [1], the system named is NCI/ADR-RES ovarian.
The test system of experiment [2] is TK-10 renal.
Experiment [3] deals with SF-268 CNS.
The subject of experiment [4] is OVCAR-4 ovarian.
Experiment [5] concerns OVCAR-5 ovarian.
For experiment [6], the system named is UO-31 renal.
In experiment [7] the test system is NCI-H226 lung.
The subject of experiment [8] is NCI-H23 lung.
The test system of experiment [9] is NCI-H460 lung.
For experiment [10], the system named is HCT-15 colon.

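Interpolation was linear, between the two tested concentrations surrounding the appropriate level; five concentrations were tested over 48 hours in 96-well plates. GI50 marks 50% less growth. TGI marks complete inhibition of growth.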 Some results are limits rather than exact numbers.

Consider `COC(=O)[C@]12CC[C@@H](C)[C@H](C)[C@@H]1C1=CC[C@@H]3[C@@]4(C)CC(=O)[C@H](O)[C@@]5(C)COC(=C45)C[C@@]3(C)[C@]1(C)CC2`, for which the GI50 in experiment [1] was 18.4 µM; in experiment [2], 20.4 µM; in experiment [3] it was 19.2 µM; in [4] it was 17.1 µM; in experiment [5] it was 18.4 µM; in experiment [6], 16.9 µM. The GI50 was 17.7 µM in experiment [7], 17.5 µM in experiment [8], 18.8 µM in experiment [9] and 18 µM in [10]. Moreover, the TGI in experiment [1] was determined as 37.6 µM; in experiment [2] it was 38 µM; in experiment [3], 37.8 µM; in experiment [4] it was 36 µM; in [5], 37.7 µM; in [6], 32.8 µM. Also, the TGI is 38.7 µM in [7], 35.7 µM in experiment [8], 37.5 µM in experiment [9] and 33.4 µM in experiment [10].
As to `O=c1c(Cl)nnc2sc3ccccc3n12`, the GI50 in experiment [1] is 13.3 µM; in experiment [2], 8.15 µM; in experiment [3], 51.1 µM; in experiment [4], 46.9 µM; in experiment [5], 54.1 µM; in [7] it was 43.1 µM. Further, the GI50 in [8] was 25.2 µM; in [9], 37.7 µM; in experiment [10], 16.5 µM. Further, the TGI in experiment [1] was 41.9 µM; in experiment [2] it was 90.7 µM; in experiment [3] it was more than 100 µM; in [4], more than 100 µM; in experiment [5], more than 100 µM; in [7], more than 100 µM. For the same compound, the TGI was more than 100 µM in experiment [8], more than 100 µM in [9] and 54.3 µM in [10].
Turning to `O=C1C2CC(Cl)C(SSC3CC4C(=O)N(SC(Cl)(Cl)C(Cl)Cl)C(=O)C4CC3Cl)CC2C(=O)N1SC(Cl)(Cl)C(Cl)Cl` (centres undefined), the TGI in [1] was 6.05 µM; in [2] it was 7.07 µM; in experiment [3], 3.91 µM; in experiment [4], 4.31 µM; in [5], 66.3 µM; in experiment [6], 4.82 µM. In addition, the TGI in [7] came out at 26.4 µM; in [8], 5.65 µM; in experiment [9], 13.4 µM.
With `OB([O][Hg][c]1ccccc1)[O][Hg][c]1ccccc1`, the GI50 in [1] was 1.69 µM; in [3], 1.06 µM; in [4] it was 0.334 µM; in [5], 1.88 µM; in experiment [6], 0.539 µM; in [7], 1.52 µM. For the same compound, the GI50 in experiment [8] is 0.784 µM; in experiment [9], 0.589 µM; in experiment [10], 0.141 µM. Besides, the TGI came to 4.45 µM in [1]; 2.5 µM in experiment [3]; 2.01 µM in [4]; 3.33 µM in experiment [5]; 1.63 µM in [6]; 4.33 µM in experiment [7]. The TGI stood at 2.17 µM in [8], 3.06 µM in experiment [9] and 0.354 µM in experiment [10].
On to `O=S(=O)(c1ccc(NC(=S)N/N=C/c2ccccc2O)cc1)N1CCCCC1`, for which the TGI is 0.586 µM in experiment [1]; 4.23 µM in [2]; 6.9 µM in experiment [3]; more than 71.4 µM in experiment [4]; 18.3 µM in experiment [5]; more than 41.9 µM in experiment [6]. Further, the TGI is 0.803 µM in experiment [7], 6.94 µM in [8] and 18.4 µM in experiment [10].
`Nc1ccn(C=C=CCO)c(=O)n1`: the GI50 in experiment [1], in experiment [2], in experiment [3], in experiment [4], in experiment [5] and in experiment [6] was more than 1000 µM throughout. The GI50 in experiment [7], in experiment [8] and in experiment [10] was more than 1000 µM each time. Further, the TGI in [1], in experiment [2], in experiment [3], in [4], in [5] and in experiment [6] was more than 1000 µM each time. The TGI in [7], in experiment [8] and in experiment [10] was more than 1000 µM in each case.
Take `COc1cc2c3c(n(C)c(=O)c2cc1OC)-c1cc2c(cc1/C3=C\CCCCN)OCO2`: the GI50 is 4.74 µM in experiment [1]; 3.95 µM in [2]; 17.2 µM in [4]; 15.5 µM in [5]; 3.28 µM in experiment [6]; 3.84 µM in experiment [8]. Moreover, the GI50 was 5.02 µM in experiment [9] and 25.1 µM in experiment [10]. The TGI in experiment [1] stood at 18.1 µM; in experiment [2], 17.6 µM; in experiment [4], 57.3 µM; in experiment [5], 35.4 µM; in [6], 13.5 µM; in [8], 15.3 µM. For the same compound, the TGI in experiment [9] and in experiment [10] was more than 100 µM in each case.
In the case of `C1CCC([PH+](C2CCCCC2)C2CCCCC2[PH+](C2CCCCC2)C2CCCCC2)CC1.[Au].[CH-]1CCCCC1C1CCCC[N-]1` (centres undefined), the GI50 was 2.97 µM in experiment [1]; 0.463 µM in experiment [2]; 0.377 µM in experiment [5]; 1.36 µM in experiment [6]; 1.5 µM in experiment [10]. In addition, the TGI in [1] was more than 100 µM; in experiment [2] it was 1.86 µM; in experiment [5], 1.79 µM; in [6], 2.69 µM; in experiment [10] it was 3.03 µM.
For the compound `CC1(C)N=C(N)N=C(N)N1c1cccc(/C=C/C=C/c2cccc([N+](=O)[O-])c2)c1`, the GI50 was more than 100 µM in experiment [1]; 3.64 µM in experiment [3]; 5.54 µM in [4]; 10.5 µM in [5]; 55.2 µM in [6]; 10.9 µM in [7]. The values for the GI50 in [9] and in experiment [10] were 2.85 µM and 98.1 µM, respectively. The TGI in experiment [1] is more than 100 µM; in [3], 17.4 µM; in [4], 22.5 µM; in experiment [5] it was 42.5 µM; in [6], more than 100 µM; in experiment [7] it was 34.1 µM. In addition, the TGI in experiment [9] is 15.3 µM; in experiment [10] it was more than 100 µM.
